Measurements from ChEMBL document CHEMBL5678810.

Each compound was assayed against T1, Serine/threonine-protein kinase TAO1 (Homo sapiens) (UniProt Q7L7X3) (assay: Inhibition of T7 bacteriophage fused human TAOK1 at 10 uM by KINOMEscan analysis relative to control).
T1 sequence (whole entry): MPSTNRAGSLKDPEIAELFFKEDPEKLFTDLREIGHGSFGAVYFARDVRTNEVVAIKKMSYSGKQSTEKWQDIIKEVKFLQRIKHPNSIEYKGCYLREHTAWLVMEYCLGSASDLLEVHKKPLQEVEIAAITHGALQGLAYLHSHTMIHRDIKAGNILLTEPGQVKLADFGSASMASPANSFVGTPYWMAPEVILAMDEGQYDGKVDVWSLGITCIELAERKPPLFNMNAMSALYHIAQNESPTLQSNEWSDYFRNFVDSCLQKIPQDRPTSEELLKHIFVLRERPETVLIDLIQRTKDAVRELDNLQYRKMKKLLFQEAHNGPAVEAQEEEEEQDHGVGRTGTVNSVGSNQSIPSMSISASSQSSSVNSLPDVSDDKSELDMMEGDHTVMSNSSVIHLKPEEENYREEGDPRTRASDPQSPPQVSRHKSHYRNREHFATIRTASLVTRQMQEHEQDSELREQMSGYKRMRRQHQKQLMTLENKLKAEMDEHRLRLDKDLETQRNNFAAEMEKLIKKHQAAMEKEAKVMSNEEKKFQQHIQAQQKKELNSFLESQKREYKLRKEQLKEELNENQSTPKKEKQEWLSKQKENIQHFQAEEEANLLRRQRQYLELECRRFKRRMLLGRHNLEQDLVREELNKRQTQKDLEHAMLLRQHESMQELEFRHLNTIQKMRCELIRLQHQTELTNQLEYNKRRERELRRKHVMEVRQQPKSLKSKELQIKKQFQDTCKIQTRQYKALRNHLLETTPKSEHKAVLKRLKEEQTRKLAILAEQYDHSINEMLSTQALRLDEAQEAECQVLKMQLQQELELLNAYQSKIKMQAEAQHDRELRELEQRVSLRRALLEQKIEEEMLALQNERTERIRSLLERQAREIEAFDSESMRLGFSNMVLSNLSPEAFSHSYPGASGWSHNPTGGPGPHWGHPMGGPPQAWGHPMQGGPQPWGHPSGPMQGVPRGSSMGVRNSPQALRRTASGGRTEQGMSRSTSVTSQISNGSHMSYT
COc1cc(N2CCC(N3CCN(C)CC3)CC2)ccc1Nc1ncc2c(n1)N(C)c1ccccc1C(=O)N2C showed an inhibition of 28%.

These compounds were tested against T2, Mitogen-activated protein kinase kinase kinase 7 (Homo sapiens) (UniProt O43318) (assay: Inhibition of T7 bacteriophage fused human TAK1 at 10 uM by KINOMEscan analysis relative to control).
T2 sequence (whole entry): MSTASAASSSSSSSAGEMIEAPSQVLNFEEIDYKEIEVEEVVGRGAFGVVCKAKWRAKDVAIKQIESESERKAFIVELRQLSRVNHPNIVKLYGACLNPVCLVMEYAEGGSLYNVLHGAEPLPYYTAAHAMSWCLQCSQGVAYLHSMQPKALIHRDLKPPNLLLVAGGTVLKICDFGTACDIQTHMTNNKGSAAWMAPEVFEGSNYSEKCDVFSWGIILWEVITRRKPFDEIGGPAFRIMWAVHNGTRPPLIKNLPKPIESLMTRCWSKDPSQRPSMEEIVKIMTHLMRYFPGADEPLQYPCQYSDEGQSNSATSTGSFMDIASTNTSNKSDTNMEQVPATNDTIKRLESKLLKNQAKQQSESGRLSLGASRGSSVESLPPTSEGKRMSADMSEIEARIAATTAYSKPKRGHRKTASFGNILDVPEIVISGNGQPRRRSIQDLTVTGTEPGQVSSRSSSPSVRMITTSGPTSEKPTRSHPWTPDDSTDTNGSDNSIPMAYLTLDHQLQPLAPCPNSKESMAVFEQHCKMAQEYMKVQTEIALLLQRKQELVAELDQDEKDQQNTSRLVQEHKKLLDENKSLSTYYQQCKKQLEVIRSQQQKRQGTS
COc1cc(N2CCC(N3CCN(C)CC3)CC2)ccc1Nc1ncc2c(n1)N(C)c1ccccc1C(=O)N2C was tested, and the inhibition was 98%.

These compounds were tested against Ribosomal protein S6 kinase alpha-2 (Homo sapiens) (UniProt Q15349) (assay: Inhibition of T7 bacteriophage fused human N-terminal RSK3 Kinase domain-1 at 10 uM by KINOMEscan analysis relative to control).
Compound COc1cc(N2CCC(N3CCN(C)CC3)CC2)ccc1Nc1ncc2c(n1)N(C)c1ccccc1C(=O)N2C has an inhibition of 83%.

What follows are compounds tested against Serine/threonine-protein kinase 32B (Homo sapiens) (UniProt Q9NY57) (assay: Inhibition of T7 bacteriophage fused human YANK2 at 10 uM by KINOMEscan analysis relative to control).
Sequence of Serine/threonine-protein kinase 32B (Homo sapiens) (Q9NY57 whole entry, the tested form may be a part): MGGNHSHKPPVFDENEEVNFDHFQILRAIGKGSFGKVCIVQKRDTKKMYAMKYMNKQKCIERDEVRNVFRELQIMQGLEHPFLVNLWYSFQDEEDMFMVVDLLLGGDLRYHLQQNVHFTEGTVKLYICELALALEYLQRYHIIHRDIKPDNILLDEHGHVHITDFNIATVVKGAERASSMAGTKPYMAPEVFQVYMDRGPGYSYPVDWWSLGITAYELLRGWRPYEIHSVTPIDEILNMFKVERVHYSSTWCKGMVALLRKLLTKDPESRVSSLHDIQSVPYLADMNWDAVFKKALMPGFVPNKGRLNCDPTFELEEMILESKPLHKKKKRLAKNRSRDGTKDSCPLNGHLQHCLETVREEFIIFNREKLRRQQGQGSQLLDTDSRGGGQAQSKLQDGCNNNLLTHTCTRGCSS
COc1cc(N2CCC(N3CCN(C)CC3)CC2)ccc1Nc1ncc2c(n1)N(C)c1ccccc1C(=O)N2C was tested, and the inhibition was 100%.

These compounds were tested against Tyrosine-protein kinase SYK (Homo sapiens) (UniProt P43405) (assay: Inhibition of T7 bacteriophage fused human SYK at 10 uM by KINOMEscan analysis relative to control).
Work on COc1cc(N2CCC(N3CCN(C)CC3)CC2)ccc1Nc1ncc2c(n1)N(C)c1ccccc1C(=O)N2C yielded an inhibition of 100%.

The compounds below were run against Dual specificity testis-specific protein kinase 1 (Homo sapiens) (UniProt Q15569) (assay: Inhibition of T7 bacteriophage fused human TESK1 at 10 uM by KINOMEscan analysis relative to control).
Sequence of Dual specificity testis-specific protein kinase 1 (Homo sapiens) (Q15569 whole entry, looked up, the tested form may be a part): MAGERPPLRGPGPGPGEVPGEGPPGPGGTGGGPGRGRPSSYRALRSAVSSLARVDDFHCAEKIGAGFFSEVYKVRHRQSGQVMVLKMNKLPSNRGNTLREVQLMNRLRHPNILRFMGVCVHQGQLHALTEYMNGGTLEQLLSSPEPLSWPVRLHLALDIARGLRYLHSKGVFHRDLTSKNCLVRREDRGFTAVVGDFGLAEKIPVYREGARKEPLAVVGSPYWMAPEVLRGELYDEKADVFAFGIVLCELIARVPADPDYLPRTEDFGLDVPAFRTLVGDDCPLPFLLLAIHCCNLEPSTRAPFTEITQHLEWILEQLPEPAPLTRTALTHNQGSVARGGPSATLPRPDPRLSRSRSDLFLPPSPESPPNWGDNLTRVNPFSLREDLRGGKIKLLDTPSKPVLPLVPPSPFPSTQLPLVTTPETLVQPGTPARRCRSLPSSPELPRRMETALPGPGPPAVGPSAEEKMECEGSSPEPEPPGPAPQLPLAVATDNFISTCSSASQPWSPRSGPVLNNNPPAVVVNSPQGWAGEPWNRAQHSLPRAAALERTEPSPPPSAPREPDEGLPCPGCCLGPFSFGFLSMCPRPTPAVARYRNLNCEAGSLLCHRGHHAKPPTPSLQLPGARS
With COc1cc(N2CCC(N3CCN(C)CC3)CC2)ccc1Nc1ncc2c(n1)N(C)c1ccccc1C(=O)N2C the inhibition was 82%.

Each compound was assayed against Vascular endothelial growth factor receptor 2 (Homo sapiens) (UniProt P35968) (assay: Inhibition of T7 bacteriophage fused human VEGFR2 at 10 uM by KINOMEscan analysis relative to control).
COc1cc(N2CCC(N3CCN(C)CC3)CC2)ccc1Nc1ncc2c(n1)N(C)c1ccccc1C(=O)N2C gave an inhibition of 84%.

Each compound was assayed against Wee1-like protein kinase 2 (Homo sapiens) (UniProt P0C1S8) (assay: Inhibition of T7 bacteriophage fused human WEE2 at 10 uM by KINOMEscan analysis relative to control).
Compound COc1cc(N2CCC(N3CCN(C)CC3)CC2)ccc1Nc1ncc2c(n1)N(C)c1ccccc1C(=O)N2C has an inhibition of 100%.

These compounds were tested against Tyrosine-protein kinase receptor Tie-1 (Homo sapiens) (UniProt P35590) (assay: Inhibition of T7 bacteriophage fused human TIE1 at 10 uM by KINOMEscan analysis relative to control).
Sequence of Tyrosine-protein kinase receptor Tie-1 (Homo sapiens) (P35590 whole entry, the tested form may be a part): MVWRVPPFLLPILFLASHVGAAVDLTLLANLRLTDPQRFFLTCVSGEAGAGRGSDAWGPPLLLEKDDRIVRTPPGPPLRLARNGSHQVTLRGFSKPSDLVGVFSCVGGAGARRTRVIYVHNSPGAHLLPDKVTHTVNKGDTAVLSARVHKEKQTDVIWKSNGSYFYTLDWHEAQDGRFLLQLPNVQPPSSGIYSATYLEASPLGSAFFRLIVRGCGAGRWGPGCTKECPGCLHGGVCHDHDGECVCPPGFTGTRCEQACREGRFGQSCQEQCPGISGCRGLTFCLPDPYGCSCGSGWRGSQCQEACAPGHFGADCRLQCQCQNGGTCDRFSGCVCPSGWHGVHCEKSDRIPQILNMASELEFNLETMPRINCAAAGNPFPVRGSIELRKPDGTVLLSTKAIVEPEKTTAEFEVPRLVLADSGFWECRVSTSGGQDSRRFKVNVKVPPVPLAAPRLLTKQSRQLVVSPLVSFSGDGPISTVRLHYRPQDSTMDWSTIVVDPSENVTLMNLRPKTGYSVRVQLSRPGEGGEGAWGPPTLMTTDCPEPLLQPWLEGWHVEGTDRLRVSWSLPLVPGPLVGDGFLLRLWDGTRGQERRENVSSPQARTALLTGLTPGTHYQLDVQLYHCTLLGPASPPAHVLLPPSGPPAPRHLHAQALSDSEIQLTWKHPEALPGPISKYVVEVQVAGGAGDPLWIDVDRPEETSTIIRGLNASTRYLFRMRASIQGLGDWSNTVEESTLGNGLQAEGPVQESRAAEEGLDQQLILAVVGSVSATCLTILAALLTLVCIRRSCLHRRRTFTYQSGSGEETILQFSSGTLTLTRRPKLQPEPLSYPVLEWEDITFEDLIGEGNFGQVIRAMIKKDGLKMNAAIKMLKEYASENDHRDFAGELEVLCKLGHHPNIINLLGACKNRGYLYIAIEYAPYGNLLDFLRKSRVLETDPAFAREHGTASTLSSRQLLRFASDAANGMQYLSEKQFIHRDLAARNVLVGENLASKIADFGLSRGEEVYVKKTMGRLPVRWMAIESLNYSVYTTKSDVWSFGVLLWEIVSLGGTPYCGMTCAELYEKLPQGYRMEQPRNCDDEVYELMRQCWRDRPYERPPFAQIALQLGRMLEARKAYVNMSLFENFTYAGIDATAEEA
COc1cc(N2CCC(N3CCN(C)CC3)CC2)ccc1Nc1ncc2c(n1)N(C)c1ccccc1C(=O)N2C gave an inhibition of 100%.

These compounds were tested against STE20/SPS1-related proline-alanine-rich protein kinase (Homo sapiens) (UniProt Q9UEW8) (assay: Inhibition of T7 bacteriophage fused human STK39 at 10 uM by KINOMEscan analysis relative to control).
Work on COc1cc(N2CCC(N3CCN(C)CC3)CC2)ccc1Nc1ncc2c(n1)N(C)c1ccccc1C(=O)N2C yielded an inhibition of 39%.

These compounds were tested against Activated CDC42 kinase 1 (Homo sapiens) (UniProt Q07912) (assay: Inhibition of T7 bacteriophage fused human TNK2 at 10 uM by KINOMEscan analysis relative to control).
Compound COc1cc(N2CCC(N3CCN(C)CC3)CC2)ccc1Nc1ncc2c(n1)N(C)c1ccccc1C(=O)N2C has an inhibition of 18%.

Each compound was assayed against TGF-beta receptor type-2 (Homo sapiens) (UniProt P37173) (assay: Inhibition of T7 bacteriophage fused human TGFBR2 at 10 uM by KINOMEscan analysis relative to control).
Work on COc1cc(N2CCC(N3CCN(C)CC3)CC2)ccc1Nc1ncc2c(n1)N(C)c1ccccc1C(=O)N2C yielded an inhibition of 100%.

What follows are compounds tested against STE20-like serine/threonine-protein kinase (Homo sapiens) (UniProt Q9H2G2) (assay: Inhibition of T7 bacteriophage fused human SLK at 10 uM by KINOMEscan analysis relative to control).
COc1cc(N2CCC(N3CCN(C)CC3)CC2)ccc1Nc1ncc2c(n1)N(C)c1ccccc1C(=O)N2C gave an inhibition of 100%.

Each compound was assayed against Ribosomal protein S6 kinase beta-1 (Homo sapiens) (UniProt P23443) (assay: Inhibition of T7 bacteriophage fused human S6K1 at 10 uM by KINOMEscan analysis relative to control).
COc1cc(N2CCC(N3CCN(C)CC3)CC2)ccc1Nc1ncc2c(n1)N(C)c1ccccc1C(=O)N2C gave an inhibition of 100%.

These compounds were tested against Angiopoietin-1 receptor (Homo sapiens) (UniProt Q02763) (assay: Inhibition of T7 bacteriophage fused human TIE2 at 10 uM by KINOMEscan analysis relative to control).
Sequence of Angiopoietin-1 receptor (Homo sapiens) (Q02763 whole entry, the tested form may be a part): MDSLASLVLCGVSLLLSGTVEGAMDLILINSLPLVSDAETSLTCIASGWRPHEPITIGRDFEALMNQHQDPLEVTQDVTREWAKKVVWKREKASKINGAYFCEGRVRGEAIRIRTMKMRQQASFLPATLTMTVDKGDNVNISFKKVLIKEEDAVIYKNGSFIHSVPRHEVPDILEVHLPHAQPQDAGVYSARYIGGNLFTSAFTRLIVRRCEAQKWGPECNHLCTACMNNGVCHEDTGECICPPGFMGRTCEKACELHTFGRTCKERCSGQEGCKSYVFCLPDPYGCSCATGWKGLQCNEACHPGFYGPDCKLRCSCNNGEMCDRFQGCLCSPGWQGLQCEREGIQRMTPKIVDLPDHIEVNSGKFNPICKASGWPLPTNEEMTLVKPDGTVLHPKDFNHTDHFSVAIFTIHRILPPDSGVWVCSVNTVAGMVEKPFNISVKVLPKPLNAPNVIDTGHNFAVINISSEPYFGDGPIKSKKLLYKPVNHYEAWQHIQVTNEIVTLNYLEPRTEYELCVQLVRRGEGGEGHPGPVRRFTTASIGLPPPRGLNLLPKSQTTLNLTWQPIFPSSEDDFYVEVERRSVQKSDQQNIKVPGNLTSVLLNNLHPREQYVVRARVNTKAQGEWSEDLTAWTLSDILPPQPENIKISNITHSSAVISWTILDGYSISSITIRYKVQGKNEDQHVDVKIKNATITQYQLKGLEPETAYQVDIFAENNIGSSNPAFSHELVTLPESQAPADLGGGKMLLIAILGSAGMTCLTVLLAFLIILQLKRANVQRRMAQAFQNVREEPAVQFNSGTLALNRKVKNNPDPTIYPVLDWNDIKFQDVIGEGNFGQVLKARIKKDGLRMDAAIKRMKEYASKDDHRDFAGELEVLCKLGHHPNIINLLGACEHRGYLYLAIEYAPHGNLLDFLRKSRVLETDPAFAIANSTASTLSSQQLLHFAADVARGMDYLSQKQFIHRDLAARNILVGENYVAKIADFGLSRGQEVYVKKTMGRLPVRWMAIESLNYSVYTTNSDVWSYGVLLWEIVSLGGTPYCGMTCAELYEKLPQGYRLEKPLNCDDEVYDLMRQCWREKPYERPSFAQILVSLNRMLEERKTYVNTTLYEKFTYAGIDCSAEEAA
In the case of COc1cc(N2CCC(N3CCN(C)CC3)CC2)ccc1Nc1ncc2c(n1)N(C)c1ccccc1C(=O)N2C, the inhibition is reported as 100%.

The compounds below were run against Non-receptor tyrosine-protein kinase TYK2 (Homo sapiens) (UniProt P29597) (assay: Inhibition of T7 bacteriophage fused human TYK2 JH2 pseudokinase domain at 10 uM by KINOMEscan analysis relative to control).
Sequence of Non-receptor tyrosine-protein kinase TYK2 (Homo sapiens) (P29597 whole entry, the tested form may be a part): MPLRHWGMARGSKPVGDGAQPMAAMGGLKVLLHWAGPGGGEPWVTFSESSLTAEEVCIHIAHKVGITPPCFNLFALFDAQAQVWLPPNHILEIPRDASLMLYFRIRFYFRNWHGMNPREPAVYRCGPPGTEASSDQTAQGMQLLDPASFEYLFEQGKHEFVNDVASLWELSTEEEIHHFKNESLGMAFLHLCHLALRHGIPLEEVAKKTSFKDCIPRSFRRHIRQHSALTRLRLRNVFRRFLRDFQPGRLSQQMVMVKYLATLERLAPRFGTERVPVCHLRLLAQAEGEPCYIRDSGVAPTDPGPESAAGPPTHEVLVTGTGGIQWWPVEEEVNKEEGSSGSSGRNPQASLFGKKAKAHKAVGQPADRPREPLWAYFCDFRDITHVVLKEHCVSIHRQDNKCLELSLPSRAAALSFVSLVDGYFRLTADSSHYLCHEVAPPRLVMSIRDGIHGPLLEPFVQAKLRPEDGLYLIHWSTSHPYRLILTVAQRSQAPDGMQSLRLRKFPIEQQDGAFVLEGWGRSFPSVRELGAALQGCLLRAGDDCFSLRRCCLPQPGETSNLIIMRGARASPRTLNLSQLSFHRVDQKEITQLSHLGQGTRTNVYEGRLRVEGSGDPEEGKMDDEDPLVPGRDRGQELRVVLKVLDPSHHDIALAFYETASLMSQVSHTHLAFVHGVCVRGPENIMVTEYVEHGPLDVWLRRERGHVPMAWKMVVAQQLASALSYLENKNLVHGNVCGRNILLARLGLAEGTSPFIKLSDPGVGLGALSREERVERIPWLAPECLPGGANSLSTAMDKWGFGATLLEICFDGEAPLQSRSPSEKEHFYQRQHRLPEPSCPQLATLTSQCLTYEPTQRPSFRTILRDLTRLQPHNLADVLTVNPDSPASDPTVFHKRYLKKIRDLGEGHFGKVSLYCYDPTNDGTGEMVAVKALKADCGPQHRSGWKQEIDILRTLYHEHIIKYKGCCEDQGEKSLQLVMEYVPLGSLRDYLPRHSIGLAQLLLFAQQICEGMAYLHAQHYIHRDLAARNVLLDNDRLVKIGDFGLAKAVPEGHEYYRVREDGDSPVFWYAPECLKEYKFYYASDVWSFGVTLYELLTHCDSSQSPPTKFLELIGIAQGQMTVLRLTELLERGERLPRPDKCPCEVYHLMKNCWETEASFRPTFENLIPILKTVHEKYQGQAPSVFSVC
With COc1cc(N2CCC(N3CCN(C)CC3)CC2)ccc1Nc1ncc2c(n1)N(C)c1ccccc1C(=O)N2C the inhibition was 100%.

The compounds below were run against Serine/threonine-protein kinase 32C (Homo sapiens) (UniProt Q86UX6) (assay: Inhibition of T7 bacteriophage fused human YANK3 at 10 uM by KINOMEscan analysis relative to control).
Sequence of Serine/threonine-protein kinase 32C (Homo sapiens) (Q86UX6 whole entry, the tested form may be a part): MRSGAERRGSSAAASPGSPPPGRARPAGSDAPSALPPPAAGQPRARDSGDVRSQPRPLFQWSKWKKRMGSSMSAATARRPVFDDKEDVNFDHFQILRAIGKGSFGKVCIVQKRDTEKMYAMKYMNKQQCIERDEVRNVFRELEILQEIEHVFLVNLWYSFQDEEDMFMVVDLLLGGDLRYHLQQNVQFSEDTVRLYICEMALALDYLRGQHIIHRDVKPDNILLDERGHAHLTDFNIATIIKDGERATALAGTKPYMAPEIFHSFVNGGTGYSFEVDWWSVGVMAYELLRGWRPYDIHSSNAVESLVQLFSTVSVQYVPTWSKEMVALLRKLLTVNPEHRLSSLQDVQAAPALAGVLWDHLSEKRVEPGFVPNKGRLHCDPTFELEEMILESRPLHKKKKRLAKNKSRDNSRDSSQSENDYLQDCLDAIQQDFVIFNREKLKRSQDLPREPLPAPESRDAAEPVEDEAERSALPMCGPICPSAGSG
COc1cc(N2CCC(N3CCN(C)CC3)CC2)ccc1Nc1ncc2c(n1)N(C)c1ccccc1C(=O)N2C was tested, and the inhibition was 100%.
